Measured values reported in patent publication US10131652B2, “Pyrimidinyloxy benzene derivatives as herbicides” (E. I. DU PONT DE NEMOURS AND COMPANY, priority 2014, dated 2018).

Experiments:
Type in all cases: in vivo
[1] = test system: small-flower umbrella sedge (Cyperus difformis); experiment: Test C flooded paddy test plant response; details: Flood, 250 g ai/ha; scale of 0 to 100 where 0 is no effect and 100 is complete control; 13 to 15 days
Procedure, shortened: (§1)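 Flooded-pot format, 3 cm water over soil maintained for the test duration; test compounds dispensed into the water at the 2-leaf stage. Greenhouse holding 13 to 15 days. Plants evaluated visually relative to untreated controls, 0 meaning no effect and 100 complete control.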

[2] = test system: barnyardgrass (Echinochloa crus-galli); experiment: Test C flooded paddy test plant response; details: Flood, 250 g ai/ha; scale of 0 to 100 where 0 is no effect and 100 is complete control; 13 to 15 days
Procedure, shortened: as §1

[3] = test system: ducksalad (Heteranthera limosa); experiment: Test C flooded paddy test plant response; details: Flood, 250 g ai/ha; scale of 0 to 100 where 0 is no effect and 100 is complete control; 13 to 15 days
Procedure, shortened: as §1

rice (Oryza sativa) = experiment: Test C flooded paddy test plant response; details: Flood, 250 g ai/ha; scale of 0 to 100 where 0 is no effect and 100 is complete control; 13 to 15 days
Procedure, shortened: as §1

[4] = test system: large (Lg) crabgrass (Digitaria sanguinalis); experiment: Test B pre-/postemergence plant response
Procedure, shortened: (§2)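 Visual injury scores on a 0–100 scale (100 = complete control) relative to untreated plants, taken about 10 days post-treatment in greenhouse. Treatments were a directed preemergence soil spray and a postemergence spray at one- to two-leaf stage, using surfactant-containing solvent formulation.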

[5] = test system: wheat (Triticum aestivum); experiment: Test B pre-/postemergence plant response
Procedure, shortened: as §2

[6] = test system: pigweed (Amaranthus retroflexus); experiment: Test B pre-/postemergence plant response
Procedure, shortened: as §2

corn (Zea mays) = experiment: Test B pre-/postemergence plant response
Procedure, shortened: as §2

[7] = test system: barnyardgrass (Echinochloa crus-galli); experiment: Test B pre-/postemergence plant response
Procedure, shortened: as §2

[8] = test system: velvetleaf (Abutilon theophrasti); experiment: Test B pre-/postemergence plant response
Procedure, shortened: as §2

[9] = test system: morningglory (Ipomoea spp.); experiment: Test B pre-/postemergence plant response
Procedure, shortened: as §2

[10] = test system: giant foxtail (Setaria faberii); experiment: Test B pre-/postemergence plant response
Procedure, shortened: as §2

[11] = 125 g ai/ha, postemergence, 0 to 100 scale, 0 no effect, 100 complete control
[12] = Postemergence, 500 g ai/ha, 0 to 100 scale (0 no effect, 100 complete control)
[13] = Preemergence, 125 g ai/ha, 0 to 100 scale where 0 is no effect and 100 is complete control
[14] = Preemergence, 500 g ai/ha, 0 to 100 scale where 0 is no effect and 100 is complete control
[15] = Postemergence, 1000 g ai/ha, 0 to 100 scale (0 no effect, 100 complete control)
[16] = Preemergence, 1000 g ai/ha, 0 to 100 scale (0 no effect, 100 complete control)

Row | Structure (SMILES) | Sedge, Umbrella plant response rating [1] | Barnyardgrass plant response rating [2] | Ducksalad plant response rating [3] | Rice plant response rating (rice (Oryza sativa)) | Plant response rating, Crabgrass, Large [4, 11] | Plant response rating, Crabgrass, Large [4, 12] | Plant response rating, Crabgrass, Large [4, 13] | Plant response rating, Crabgrass, Large [4, 14] | Plant response rating, Wheat [5, 11] | Plant response rating, Wheat [5, 12] | Plant response rating, Wheat [5, 13] | Plant response rating, Wheat [5, 14] | Plant response rating, Pigweed [6, 11] | Plant response rating, Pigweed [6, 12] | Plant response rating, Pigweed [6, 13] | Plant response rating, Pigweed [6, 14] | Plant response rating, Corn (corn (Zea mays); [11]) | Plant response rating, Corn (corn (Zea mays); [12]) | Plant response rating, Corn (corn (Zea mays); [13]) | Plant response rating, Corn (corn (Zea mays); [14]) | other results
1 | Cn1nc(C(F)(F)F)cc1-c1ccccc1Oc1ncc(Br)cn1 [Compound 30] | 0 | 0 | 0 | 0 | 0 | 10 | 0 | 20 | 0 | 0 | 0 | 0 | 0 | 10 | 0 | 30 | 0 | 0 | 0 | 0 | Plant response rating, Barnyardgrass [7, 11]: 0; Plant response rating, Barnyardgrass [7, 12]: 0; Plant response rating, Barnyardgrass [7, 13]: 0; Plant response rating, Barnyardgrass [7, 14]: 0; Plant response rating, Velvetleaf [8, 11]: 10; Plant response rating, Velvetleaf [8, 12]: 30; Plant response rating, Velvetleaf [8, 13]: 0; Plant response rating, Velvetleaf [8, 14]: 0; Plant response rating, Morningglory [9, 11]: 0; Plant response rating, Morningglory [9, 12]: 10; Plant response rating, Morningglory [9, 13]: 0; Plant response rating, Morningglory [9, 14]: 0; Plant response rating, Foxtail, Giant [10, 11]: 0; Plant response rating, Foxtail, Giant [10, 12]: 10; Plant response rating, Foxtail, Giant [10, 13]: 0; Plant response rating, Foxtail, Giant [10, 14]: 10
2 | Clc1cnc(Oc2ccccc2-c2cc(Cl)cc(Cl)c2)nc1 [Compound 41] | 0 | 0 | 0 | 0 | 10 | 20 | 0 | 10 | 0 | 0 | 0 | 0 | 40 | 70 | 0 | 0 | 0 | 10 | 0 | 0 | Plant response rating, Barnyardgrass [7, 11]: 0; Plant response rating, Barnyardgrass [7, 12]: 20; Plant response rating, Barnyardgrass [7, 13]: 0; Plant response rating, Barnyardgrass [7, 14]: 0; Plant response rating, Velvetleaf [8, 11]: 10; Plant response rating, Velvetleaf [8, 12]: 30; Plant response rating, Velvetleaf [8, 13]: 0; Plant response rating, Velvetleaf [8, 14]: 0; Plant response rating, Morningglory [9, 11]: 0; Plant response rating, Morningglory [9, 12]: 10; Plant response rating, Morningglory [9, 13]: 0; Plant response rating, Morningglory [9, 14]: 0; Plant response rating, Foxtail, Giant [10, 11]: 10; Plant response rating, Foxtail, Giant [10, 12]: 20; Plant response rating, Foxtail, Giant [10, 13]: 0; Plant response rating, Foxtail, Giant [10, 14]: 20
3 | FC(F)(F)c1ccc(-c2ccccc2Oc2ncc(Cl)cn2)cc1 [Compound 43] | 0 | 0 | 0 | 0 | 0 | 20 | 0 | 30 | 0 | 0 | 0 | 0 | 30 | 70 | 0 | 0 | 0 | 10 | 0 | 0 | Plant response rating, Barnyardgrass [7, 11]: 0; Plant response rating, Barnyardgrass [7, 12]: 20; Plant response rating, Barnyardgrass [7, 13]: 0; Plant response rating, Barnyardgrass [7, 14]: 20; Plant response rating, Velvetleaf [8, 11]: 20; Plant response rating, Velvetleaf [8, 12]: 70; Plant response rating, Velvetleaf [8, 13]: 0; Plant response rating, Velvetleaf [8, 14]: 10; Plant response rating, Morningglory [9, 11]: 0; Plant response rating, Morningglory [9, 12]: 20; Plant response rating, Morningglory [9, 13]: 0; Plant response rating, Morningglory [9, 14]: 10; Plant response rating, Foxtail, Giant [10, 11]: 0; Plant response rating, Foxtail, Giant [10, 12]: 20; Plant response rating, Foxtail, Giant [10, 13]: 0; Plant response rating, Foxtail, Giant [10, 14]: 70
4 | Cc1ccc(Oc2ncc(Cl)cn2)c(-c2cccc(OC(F)(F)F)c2)c1 [Compound 44] | 0 | 0 | 0 | 0 | 10 | 20 | 10 | 70 | 0 | 0 | 0 | 0 | 20 | 50 | 0 | 10 | 0 | 20 | 0 | 0 | Plant response rating, Barnyardgrass [7, 11]: 10; Plant response rating, Barnyardgrass [7, 12]: 20; Plant response rating, Barnyardgrass [7, 13]: 0; Plant response rating, Barnyardgrass [7, 14]: 10; Plant response rating, Velvetleaf [8, 11]: 30; Plant response rating, Velvetleaf [8, 12]: 70; Plant response rating, Velvetleaf [8, 13]: 0; Plant response rating, Velvetleaf [8, 14]: 20; Plant response rating, Morningglory [9, 11]: 20; Plant response rating, Morningglory [9, 12]: 30; Plant response rating, Morningglory [9, 13]: 0; Plant response rating, Morningglory [9, 14]: 0; Plant response rating, Foxtail, Giant [10, 11]: 0; Plant response rating, Foxtail, Giant [10, 12]: 10; Plant response rating, Foxtail, Giant [10, 13]: 0; Plant response rating, Foxtail, Giant [10, 14]: 10
5 | Fc1cccc(Oc2ncc(Cl)cn2)c1-c1cccc(OC(F)(F)F)c1 [Compound 46] | 50 | 20 | 60 | 35 | – | – | – | – | – | – | – | – | – | – | – | – | – | – | – | – | Plant response rating, Crabgrass, Large [4, 15]: 100; Plant response rating, Crabgrass, Large [4, 16]: 100; Plant response rating, Wheat [5, 15]: 20; Plant response rating, Wheat [5, 16]: 10; Plant response rating, Pigweed [6, 15]: 100; Plant response rating, Pigweed [6, 16]: 100; Plant response rating, Corn (corn (Zea mays); [15]): 20; Plant response rating, Corn (corn (Zea mays); [16]): 0; Plant response rating, Barnyardgrass [7, 15]: 90; Plant response rating, Barnyardgrass [7, 16]: 80; Plant response rating, Velvetleaf [8, 15]: 100; Plant response rating, Velvetleaf [8, 16]: 20; Plant response rating, Morningglory [9, 15]: 70; Plant response rating, Morningglory [9, 16]: 10; Plant response rating, Foxtail, Giant [10, 15]: 100; Plant response rating, Foxtail, Giant [10, 16]: 100
6 | FC(F)(F)c1cc(-c2ccccc2Oc2ncc(Br)cn2)on1 [Compound 64] | 80 | 35 | 95 | 0 | 60 | 90 | 100 | 100 | 0 | 10 | 0 | 30 | 100 | 100 | 100 | 100 | 20 | 30 | 0 | 20 | Plant response rating, Barnyardgrass [7, 11]: 90; Plant response rating, Barnyardgrass [7, 12]: 100; Plant response rating, Barnyardgrass [7, 13]: 60; Plant response rating, Barnyardgrass [7, 14]: 100; Plant response rating, Velvetleaf [8, 11]: 100; Plant response rating, Velvetleaf [8, 12]: 100; Plant response rating, Velvetleaf [8, 13]: 80; Plant response rating, Velvetleaf [8, 14]: 90; Plant response rating, Morningglory [9, 11]: 70; Plant response rating, Morningglory [9, 12]: 100; Plant response rating, Morningglory [9, 13]: 0; Plant response rating, Morningglory [9, 14]: 60; Plant response rating, Foxtail, Giant [10, 11]: 60; Plant response rating, Foxtail, Giant [10, 12]: 80; Plant response rating, Foxtail, Giant [10, 13]: 90; Plant response rating, Foxtail, Giant [10, 14]: 100
